Earlier results on 1 compound are cited in article PMC3826081 (Journal of the American Chemical Society, 2013).

This data set has as its target PG9. As to conditions: read-out: Kd for binding of PG9; NMR studies; glycan-Asn alone; cited from earlier work.

For the compound `CC(=O)N[C@@H]1[C@@H](O)[C@H](O[C@@H]2O[C@H](CO)[C@@H](O[C@@H]3O[C@H](CO[C@H]4O[C@H](CO[C@H]5O[C@H](CO)[C@@H](O)[C@H](O)[C@@H]5O)[C@@H](O)[C@H](O[C@H]5O[C@H](CO)[C@@H](O)[C@H](O)[C@@H]5O)[C@@H]4O)[C@@H](O)[C@H](O[C@H]4O[C@H](CO)[C@@H](O)[C@H](O)[C@@H]4O)[C@@H]3O)[C@H](O)[C@H]2NC(C)=O)[C@@H](CO)O[C@H]1NC(=O)C[C@H](N)C(=O)O` [Man5GlcNAc2–Asn], the Kd was 1 to 2 mM.

In general, Kd refers to the equilibrium constant for the complex coming apart.
